Data set [1] concerns primary cultured guinea-pig urinary bladder (GPB) cells. Briefly: Membrane hyperpolarization (MHP) assay, DiBAC(4)3 / FLIPR. The settings on record: for EC50: concentration that elicits 50% of the maximal response for the test sample. Type of data set: cell-based. The method in brief: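 Primary smooth-muscle cells from male guinea-pig bladder, grown to confluence, loaded 30 min at 37° C with 5 μM DiBAC(4)3 in HEPES buffer pH 7.4. Fluorescence drop on FLIPR followed 25 min after compound; steady-state hyperpolarization normalized to 10 μM P1075 (100%), EC50 from four-parameter fit of five concentrations.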

Data set [2] has as its system tissue strips obtained from Landrace pig bladders. Briefly: Functional potassium channel opening activity in isolated bladder strips (field-stimulated twitch). The conditions noted are these: for Index: ED50 for P1075 divided by ED50 for the test agonist in a given tissue, averaged; for EC50: amount of agent necessary to cause 50% of the agent's maximal response, read-out: ED50 (the source's name); for Efficacy (% P1075) / Emax: maximal efficacy relative to P1075, field stimulation 0.05 Hz, 0.5 ms, 20 volts. The method in brief: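 Mucosa-free female Landrace pig bladder strips in Krebs Ringer bicarbonate (pH 7.4, 37° C., 0.004 mM propranolol), 1.0 g preload, field-stimulated at 0.05 Hz, 0.5 ms, 20 V for twitch. Cumulative concentration-response curves; maximal efficacy as % of P1075, ED50 fitted, potency index = P1075 ED50/test ED50 per tissue, averaged.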

Data set [3] has as its system bladder contractions in male CD rats. Briefly: In vivo bladder efficacy protocol (isovolumetric contractions model). Further details: species or system rat. The conditions noted are these: iv, cumulative doses; dose reducing area under the curve of bladder contractions by 30% relative to control; urethane-anesthetized rats. The source says: The utility of compounds of the present invention for the treatment of urinary incontinence, bladder overactivity, and bladder instability is illustrated by the ability of compounds of the present invention to inhibit bladder contractions in vivo. The following method is illustrative of the in vivo bladder efficacy of compounds of the present invention.
Male CD rats (400-450 g) were anesthetized with urethane (0.6 g/kg ip+0.6 g/kg sc). The left femoral vein was cannulated with polyethylene (PE-50) tubing for the administration of test compound. A third polyethylene catheter (PE-60) was inserted 3-4 mm into the apex of the bladder dome and secured using a 5-0 silk purse string suture. The bladder was emptied via this catheter and additionally by applying slight manual pressure on the lower abdomen. The urinary catheter was connected using a Y-tube connector to both a pressure transducer and a syringe pump. The urethra was then ligated using 4-0 silk suture and the bladder was slowly filled using a constant infusion of room temperature saline at the rate of 0.1 mL/min until spontaneous rhythmic contractions were evident (1.0-1.3 mL). After the contractions stabilized to a consistent pattern, bladder pressure was monitored for 20 minutes before and after a dose of the vehicle (equal parts of β-cyclodextrin stock solution (100 g β-cyclodextrin dissolved in 200 mL) and sterile water) alone. Then three doses of a test compound were administered cumulatively intravenous (iv) at 20 minute intervals. Each dosing solution (1 mL/kg) was warmed to body temperature before dosing and was infused over 3 minutes to minimize dosing artifacts on the bladder pressure trace. Data were averaged over the last 10 minutes of each period and presented as percent change from control. Area under the curve of the bladder contractions was determined from the respective waveforms using a Modular Instruments, Inc. computerized data acquisition system and averaged over the last ten minutes of each twenty minute period. The doses required to reduce the area under the curve of the bladder contractions by 30% (AUC ED30%) relative to control were estimated using a customized Excel spreadsheet.

The mark [4] stands for this setting: Cavia porcellus, maximal steady-state hyperpolarization, normalized to response with 10 μM P1075 (100%).

Where two headings read alike, the source gives them in different places. A value given as a limit tells only on which side of the number the result lay.

As for `C=CCC(C)(C)C(NC(=O)c1ccc(Cl)cc1)NC(=NC#N)Nc1cccnc1` (single isomer, unassigned; (+)) [Example 91, (+) 4-chloro-N-(1-{[(cyanoimino)(3-pyridinylamino)methyl]amino}-2,2-dimethyl-4-pentenyl)benzamide], the EC50 in data set [1] came out at 2900 nM. Also, the “Maximal Response (% P1075)” value in data set [1] (maximal steady-state hyperpolarization, normalized to response with 10 μM P1075 (100%)) was determined as 68 % P1075. Besides, in data set [2], the Index was determined as 0.360, the EC50 turned out to be 830 nM and the “Efficacy (% P1075)” value worked out at 46 % P1075. Also, in data set [3], the “AUC EC30” value was greater than 10 µmol/kg.

`CC(C)(C)CC(NC(=O)c1ccc(Cl)cc1)NC(=N[N+](=O)[O-])Nc1cccnc1` (single isomer, unassigned; (-)) [Example 126, (−) 4-chloro-N-(1-{[(nitroimino)(3-pyridinylamino)methyl]amino}-3,3-dimethylbutyl)benzamide]: in data set [2], the Index was 0.096, the EC50 is 3800 nM and the “Efficacy (% P1075)” value is given as 94 % P1075. The “AUC EC30” value in data set [3] is 13.5 µmol/kg.

For `Cc1ccc(C(=O)NC(NC(=NC#N)Nc2ccccc2)C(Cl)(Cl)Cl)cc1` (stereo not drawn) [Example 46, N-(1-{[anilino(cyanoimino)methyl]amino}-2,2,2-trichloroethyl)-4-methylbenzamide], the EC50 was found to be 40 nM in data set [1] (Cavia porcellus) and 5000 nM in data set [2] (Sus scrofa). The Emax in data set [1] (setting [4]) is 105%; in data set [2] (Sus scrofa) it was 84%. In data set [2], this compound returned an Index of 0.015. Besides, the “AUC EC30” value in data set [3] was determined as 0.70 µmol/kg.

As for `Cc1ccc(C(=O)NC(NC(=NC#N)Nc2cccnc2)C(C)(C)C)cc1` (stereo not drawn) [Example 51, N-(1-{[(cyanoimino)(3-pyridinylamino)methyl]amino}-2,2-dimethylpropyl)-4-methylbenzamide], the Emax in data set [1] (setting [4]) was determined as 88%. The EC50 in data set [1] amounted to 570 nM. Moreover, in data set [2], the Index was 0.006 and the “Efficacy (% P1075)” value is recorded as 100 % P1075. For the same compound, the EC50 in data set [2] (Sus scrofa) turned out to be 17000 nM. For the same compound, in data set [3], the “AUC EC30” value was 0.28 µmol/kg.

In the case of `CC(C)(C)C(NC(=O)c1ccc(Cl)cc1)NC(=NC#N)Nc1cccnc1` (stereo not drawn) [Example 52, 4-chloro-N-(1-{[(cyanoimino)(3-pyridinylamino)methyl]amino}-2,2-dimethylpropyl)benzamide], the EC50 in data set [1] (Cavia porcellus) worked out at 270 nM; in data set [2] (Sus scrofa), 19000 nM. Moreover, the Emax in data set [1] (setting [4]) and in data set [2] (Sus scrofa) was 72% each time. In data set [2], this compound had an Index of 0.012. Also, the “AUC EC30” value in data set [3] is 0.78 µmol/kg.

As to `N#CN=C(Nc1cccnc1)NC(NC(=O)c1ccc(Cl)cc1)C12CC3CC(CC(C3)C1)C2` (stereo not drawn) [Example 100, N-(1-adamantyl{[(cyanoimino)(3-pyridinylamino)methyl]amino}methyl)-4-chlorobenzamide], the melting point fell in the range of 209 to 210 °C. Besides, the EC50 in data set [1] (Cavia porcellus) turned out to be 180 nM. This compound also displayed an Emax in data set [1] (setting [4]) of 87%.

Compound `CCC1(C(NC(=O)c2ccc(Cl)cc2)NC(=NC#N)Nc2cccnc2)COCOC1` (stereo not drawn) [Example 101, 4-chloro-N-[{[(cyanoimino)(3-pyridinylamino)methyl]amino}(5-ethyl-1,3-dioxan-5-yl)methyl]benzamide] displayed a melting point of 194 to 195 °C. In addition, the EC50 in data set [1] (Cavia porcellus) was 6100 nM. The compound further gave an Emax in data set [1] (setting [4]) of 59%.

The compound `CC(C)(Cc1ccccc1)C(NC(=O)c1ccc(Cl)cc1)NC(=NC#N)Nc1cccnc1` (stereo not drawn) [Example 102, 4-chloro-N-(1-{[(cyanoimino)(3-pyridinylamino)methyl]amino}-2,2-dimethyl-3-phenylpropyl)benzamide] showed a melting point of 182 to 183 °C. This compound gave an EC50 in data set [1] (Cavia porcellus) greater than 10000 nM. Further, the Emax in data set [1] (setting [4]) was less than 20%.

Consider `CC(C)(C)C(NC(=O)c1ccc(Br)cc1)NC(=NC#N)Nc1cccnc1` (stereo not drawn) [Example 105, 4-bromo-N-(1-{[(cyanoimino)(3-pyridinylamino)methyl]amino}-2,2-dimethylpropyl)benzamide], for which the melting point was in the range of 180 to 181 °C. In data set [1] (Cavia porcellus), this compound returned an EC50 of 53 nM. This compound had an Emax in data set [1] (setting [4]) of 106%.

The compound `C=CCC(C)(C)C(NC(=O)c1ccc(Cl)cc1)NC(=N[N+](=O)[O-])Nc1cccnc1` (stereo not drawn) [Example 127, 4-chloro-N-(1-{[(nitroimino)(3-pyridinylamino)methyl]amino}-2,2-dimethyl-4-pentenyl)benzamide] had a melting point of 200 to 203 °C. Further, the EC50 in data set [1] (Cavia porcellus) amounted to 1200 nM. Also, the Emax in data set [1] (setting [4]) came out at 65%.

Compound `CC(C)(Cc1ccccc1)C(NC(=O)c1ccc(Cl)cc1)NC(=N[N+](=O)[O-])Nc1cccnc1` (stereo not drawn) [Example 128, 4-chloro-N-(1-{[(nitroimino)(3-pyridinylamino)methyl]amino}-2,2-dimethyl-3-phenylpropyl)benzamide] yielded a melting point of 205 to 207 °C. The compound further yielded an EC50 in data set [1] (Cavia porcellus) of 470 nM. Besides, the Emax in data set [1] (setting [4]) was found to be 116%.

The compound `CC1=C(CC(NC(=O)c2ccc(Cl)cc2)NC(=N[N+](=O)[O-])Nc2cccnc2)C(C)(C)CCC1` (stereo not drawn) [Example 129, 4-chloro-N-[1-{[(nitroimino)(3-pyridinylamino)methyl]amino}-2-(2,6,6-trimethyl-1-cyclohexen-1-yl)ethyl]benzamide] returned a melting point of 217 to 218 °C. The EC50 in data set [1] (Cavia porcellus) amounted to 120 nM. Further, in data set [1] (setting [4]), the Emax was 132%.

Regarding `CC(C)(C1CCCCC1)C(NC(=O)c1ccc(Cl)cc1)NC(=N[N+](=O)[O-])Nc1cccnc1` (stereo not drawn) [Example 130, 4-chloro-N-(1-{[(nitroimino)(3-pyridinylamino)methyl]amino}-2-cyclohexyl-2-methylpropyl)benzamide], the melting point lay within 201 to 203 °C. Further, the EC50 in data set [1] (Cavia porcellus) was 530 nM. Moreover, in data set [1] (setting [4]), the Emax amounted to 147%.

Consider `C=CCOCC(CC)(COCC=C)C(NC(=O)c1ccc(Cl)cc1)NC(=N[N+](=O)[O-])Nc1cccnc1` (stereo not drawn) [Example 131, N-(2,2-bis[(allyloxy)methyl]-1-{[(nitroimino)(3-pyridinylamino)methyl]amino}butyl)-4-chlorobenzamide], for which the melting point lay within 175 to 180 °C. Further, the EC50 in data set [1] (Cavia porcellus) came to 2000 nM. This compound gave an Emax in data set [1] (setting [4]) of 53%.

The compound `CCC(CC)(CCC#N)C(NC(=O)c1ccc(Cl)cc1)NC(=N[N+](=O)[O-])Nc1cccnc1` (stereo not drawn) [Example 132, 4-chloro-N-(4-cyano-1-{[(nitroimino)(3-pyridinylamino)methyl]amino}-2,2-diethylbutyl)benzamide] showed a melting point of 100 to 110 °C. The EC50 in data set [1] (Cavia porcellus) amounted to 130 nM. The compound also registered an Emax in data set [1] (setting [4]) of 124%.

Take `O=C(NC(CC12CC3CC(CC(C3)C1)C2)NC(=N[N+](=O)[O-])Nc1cccnc1)c1ccc(Cl)cc1` (stereo not drawn) [Example 134, N-(2-(1-adamantyl)-1-{[(nitroimino)(3-pyridinylamino)methyl]amino}ethyl)-4-chlorobenzamide]: the melting point lay in the range of 219 to 220 °C. The compound further gave an EC50 in data set [1] (Cavia porcellus) of 2000 nM. This compound also returned an Emax in data set [1] (setting [4]) of 86%.

On to `CC(Cl)(Cl)C(NC(=O)c1cccc(Cl)c1)NC(=NC#N)Nc1ccc(Cl)nc1` (stereo not drawn) [Example 153, 3-chloro-N-(2,2-dichloro-1-{[[(6-chloro-3-pyridinyl)amino](cyanoimino)methyl]amino}propyl)benzamide], for which the Index in data set [2] came to 0.014. Further, in data set [2] (Sus scrofa), the EC50 turned out to be 4900 nM and the Emax was found to be 93%. The “AUC EC30” value in data set [3] worked out at 1 µmol/kg.

Regarding `CC(Cl)(Cl)C(NC(=O)c1ccc(Cl)cc1)NC(=NC#N)Nc1ccc(Cl)nc1` (stereo not drawn) [Example 160, 4-chloro-N-(2,2-dichloro-1-{[[(6-chloro-3-pyridinyl)amino](cyanoimino)methyl]amino}propyl)benzamide], in data set [2], the Index was determined as 0.221 and the EC50 was determined as 690 nM. In data set [2] (Sus scrofa), this compound had an Emax of 98%. Also, the “AUC EC30” value in data set [3] came to 1.7 µmol/kg.

Values taken from US20020028836A1, “Potassium channel openers” (priority 2000, published 2002).
